Source: paper PMC5725665, “Discovery of a Highly Selective Cell‐Active Inhibitor of the Histone Lysine Demethylases KDM2/7” (Angewandte Chemie (International Ed. in English), 2017)

Assays:
JMJD1A (KDM3A) = biological target: T1, JMJD1A (KDM3A) (Homo sapiens, UniProt Q9Y4C1); assay: biochemical; design: AlphaScreen histone demethylase activity assay
T1 sequence (Q9Y4C1 1-1321): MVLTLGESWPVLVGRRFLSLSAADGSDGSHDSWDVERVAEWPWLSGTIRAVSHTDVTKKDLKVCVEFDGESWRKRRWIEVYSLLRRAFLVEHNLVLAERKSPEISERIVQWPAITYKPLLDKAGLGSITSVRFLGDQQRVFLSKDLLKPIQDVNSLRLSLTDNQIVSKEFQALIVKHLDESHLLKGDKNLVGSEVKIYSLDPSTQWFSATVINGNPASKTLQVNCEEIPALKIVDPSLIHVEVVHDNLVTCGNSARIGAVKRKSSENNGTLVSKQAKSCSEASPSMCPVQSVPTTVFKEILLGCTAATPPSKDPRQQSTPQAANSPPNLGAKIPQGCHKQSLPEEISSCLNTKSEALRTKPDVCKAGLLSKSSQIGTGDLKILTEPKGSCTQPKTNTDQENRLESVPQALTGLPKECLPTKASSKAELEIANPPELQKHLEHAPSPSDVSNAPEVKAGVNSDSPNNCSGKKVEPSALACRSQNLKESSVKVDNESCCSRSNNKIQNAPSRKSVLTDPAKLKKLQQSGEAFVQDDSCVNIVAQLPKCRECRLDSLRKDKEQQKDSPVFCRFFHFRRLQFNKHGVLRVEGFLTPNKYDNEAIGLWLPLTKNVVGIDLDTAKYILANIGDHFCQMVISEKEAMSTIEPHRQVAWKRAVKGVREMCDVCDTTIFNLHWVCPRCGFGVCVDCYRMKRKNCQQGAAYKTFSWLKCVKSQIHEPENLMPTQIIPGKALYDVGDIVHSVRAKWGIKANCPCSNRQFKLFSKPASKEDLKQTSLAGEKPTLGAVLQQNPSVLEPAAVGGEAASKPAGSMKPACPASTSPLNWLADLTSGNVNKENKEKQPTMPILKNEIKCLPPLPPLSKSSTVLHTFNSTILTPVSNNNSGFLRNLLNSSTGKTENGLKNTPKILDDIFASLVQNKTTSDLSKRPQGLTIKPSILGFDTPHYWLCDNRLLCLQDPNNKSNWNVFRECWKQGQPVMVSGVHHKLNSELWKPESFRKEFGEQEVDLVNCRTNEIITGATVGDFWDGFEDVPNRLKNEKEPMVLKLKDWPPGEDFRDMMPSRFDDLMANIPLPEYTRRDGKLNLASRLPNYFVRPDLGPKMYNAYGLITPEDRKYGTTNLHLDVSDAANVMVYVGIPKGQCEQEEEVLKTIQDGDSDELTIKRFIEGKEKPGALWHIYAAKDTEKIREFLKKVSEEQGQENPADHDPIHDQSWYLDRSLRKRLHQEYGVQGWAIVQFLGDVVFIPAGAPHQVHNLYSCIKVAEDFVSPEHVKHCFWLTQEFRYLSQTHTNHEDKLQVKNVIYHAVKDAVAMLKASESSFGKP

JMJD2C (KDM4C) = biological target: T2, JMJD2C (KDM4C) (Homo sapiens, UniProt Q9H3R0); assay: biochemical; design: AlphaScreen histone demethylase activity assay
T2 sequence (Q9H3R0 1-1056): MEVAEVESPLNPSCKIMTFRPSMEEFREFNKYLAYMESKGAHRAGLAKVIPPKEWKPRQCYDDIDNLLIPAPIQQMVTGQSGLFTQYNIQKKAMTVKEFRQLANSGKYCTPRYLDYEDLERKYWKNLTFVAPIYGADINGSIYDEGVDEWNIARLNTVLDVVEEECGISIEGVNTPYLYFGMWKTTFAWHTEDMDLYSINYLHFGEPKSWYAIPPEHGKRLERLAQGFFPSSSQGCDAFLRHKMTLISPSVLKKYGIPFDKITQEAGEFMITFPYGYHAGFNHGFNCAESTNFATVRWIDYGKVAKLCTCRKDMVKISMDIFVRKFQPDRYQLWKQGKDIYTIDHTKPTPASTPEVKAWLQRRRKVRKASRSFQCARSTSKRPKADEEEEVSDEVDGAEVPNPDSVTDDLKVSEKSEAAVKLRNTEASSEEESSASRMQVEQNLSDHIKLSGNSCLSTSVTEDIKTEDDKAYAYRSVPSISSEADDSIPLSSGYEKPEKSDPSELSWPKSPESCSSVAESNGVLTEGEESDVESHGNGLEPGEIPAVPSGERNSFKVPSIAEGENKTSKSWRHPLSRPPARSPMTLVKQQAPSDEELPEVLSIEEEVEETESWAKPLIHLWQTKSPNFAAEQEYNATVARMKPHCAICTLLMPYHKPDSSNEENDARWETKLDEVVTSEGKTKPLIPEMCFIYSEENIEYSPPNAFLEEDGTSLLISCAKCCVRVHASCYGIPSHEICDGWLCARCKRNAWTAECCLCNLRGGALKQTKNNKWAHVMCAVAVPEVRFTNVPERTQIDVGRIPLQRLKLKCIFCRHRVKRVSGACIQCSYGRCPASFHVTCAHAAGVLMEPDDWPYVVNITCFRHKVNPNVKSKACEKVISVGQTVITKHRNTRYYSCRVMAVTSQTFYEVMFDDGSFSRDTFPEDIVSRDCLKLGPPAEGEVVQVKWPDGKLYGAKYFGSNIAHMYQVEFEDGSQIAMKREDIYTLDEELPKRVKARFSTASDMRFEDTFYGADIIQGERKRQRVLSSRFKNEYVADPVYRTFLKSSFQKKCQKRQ

inhibition at 100 µM (JMJD1A (KDM3A)): 35.4%
IC50 (JMJD1A (KDM3A); read-out: KDM3A pIC50 (converted)): > 100 µM
inhibition at 10 µM (JMJD2C (KDM4C); read-out: KDM4C % Inhib. (10 uM)): 30.5%
IC50 (JMJD2C (KDM4C); read-out: KDM4C pIC50 (converted)): > 100 µM
Compound: CC(=O)N1c2ccccc2[C@@](C#N)(c2ccccc2)[C@@H]1c1cncc(CCCCCCCN2CCCC2)c1 [(S,S)-6]
